Data published in patent US12180193B2, “Accelerating fibrosarcoma protein degrading compounds and associated methods of use” (Arvinas Operations, Inc., priority 2020, dated 2024).

Assays:
BRAF V600E = target: T1, BRAF V600E (Homo sapiens, UniProt P15056, V600E); assay: Cellular assay of target protein degradation, T-Rex 293 cells stably transfected with HA-BRAF_V600E (HA immunofluorescence, high content imaging); type: cell-based; conditions: T-Rex 293 HA-BRAF V600E; for DC50: half maximal degradation, read-out: BRaf V600E DC50; for Dmax: maximum degradation observed
T1 construct: expressed in transfected cells
Method in brief: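 Doxycycline-induced (1 ng/mL) cells were treated 24 h at 37 °C with compound at 1 μM to 0.1 nM final in 0.1% DMSO. After fixation, permeabilization and blocking, anti-HA staining was imaged by high-content reading; DC50 and Dmax (% of control) were derived.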

BRAF G466V = target: T2, BRAF G466V (Homo sapiens, UniProt P15056, G466V); assay: Cellular assay of target protein degradation, T-Rex 293 cells stably transfected with HA-BRAF G466V (HA immunofluorescence, high content imaging); type: cell-based; conditions: T-Rex 293 HA-BRAF G466V; for DC50: half maximal degradation, read-out: BRaf G466V DC50; for Dmax: maximum degradation observed
T2 construct: expressed in transfected cells
Method in brief: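 Cells expressing doxycycline-induced (0.75 ng/mL) HA-BRAF G466V were treated with compound at 30 nM to 3 pM in 0.1% DMSO for 24 hours at 37° C. After fixation and permeabilization, HA was immunostained and quantified by high content imaging to derive DC50 and Dmax.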

T2 sequence (P15056 whole entry G466V): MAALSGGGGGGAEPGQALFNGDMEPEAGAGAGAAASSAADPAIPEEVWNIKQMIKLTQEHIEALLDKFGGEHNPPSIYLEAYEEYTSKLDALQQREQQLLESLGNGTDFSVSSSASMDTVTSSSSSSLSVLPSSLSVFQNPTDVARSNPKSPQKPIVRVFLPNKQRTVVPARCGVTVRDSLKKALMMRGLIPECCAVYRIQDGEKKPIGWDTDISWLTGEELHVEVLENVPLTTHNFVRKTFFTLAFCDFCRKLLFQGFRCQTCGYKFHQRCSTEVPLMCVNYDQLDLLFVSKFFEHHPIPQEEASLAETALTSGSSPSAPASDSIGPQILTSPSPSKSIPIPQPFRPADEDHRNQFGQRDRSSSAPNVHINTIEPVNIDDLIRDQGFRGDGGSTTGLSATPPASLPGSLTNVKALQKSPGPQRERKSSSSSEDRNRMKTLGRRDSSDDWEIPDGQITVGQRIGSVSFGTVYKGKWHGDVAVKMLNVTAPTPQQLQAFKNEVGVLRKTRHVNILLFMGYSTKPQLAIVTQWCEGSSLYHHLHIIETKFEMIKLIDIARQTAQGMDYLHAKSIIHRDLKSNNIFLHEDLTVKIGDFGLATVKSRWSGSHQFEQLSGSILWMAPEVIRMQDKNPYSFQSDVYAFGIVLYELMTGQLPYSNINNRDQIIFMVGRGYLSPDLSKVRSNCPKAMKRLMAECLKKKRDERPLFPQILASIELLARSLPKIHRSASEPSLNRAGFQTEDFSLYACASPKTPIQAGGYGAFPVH
T1 sequence (P15056 whole entry V600E): as the sequence (P15056 whole entry G466V) above, with V466G, V600E counted along it

DC50 (BRAF V600E) [nM] | Dmax (BRAF V600E) [%] | DC50 (BRAF G466V) [nM] | Dmax (BRAF G466V) [%] | SMILES
> 500 | > 70 | 1 to 10 | 35 to 70 | O=C1CCC(N2Cc3cc(N4CCC(CN5CC(Cc6ncc(-c7cnc8[nH]cc(C(=O)c9c(F)ccc(NS(=O)(=O)N%10CC[C@@H](F)C%10)c9F)c8c7)cn6)C5)CC4)ccc3C2=O)C(=O)N1 (stereo partly drawn) [Compound 307, (3R)-N-{3-[5-(2-{[1-({1-[2-(2,6-dioxopiperidin-3-yl)-1-oxo-2,3-dihydro-1H-isoindol-5-yl]piperidin-4-yl}methyl)azetdidin-3-yl]methyl}pyrimidin-5-yl)-1H-pyrrolo[2,3-b]pyridine-3-carbonyl]-2,4-difluorophenyl}-3-fluoropyrrolidine-1-sulfonamide]
< 5 | 35 to 70 | < 1 | 35 to 70 | CC(C)CS(=O)(=O)Nc1ccc(F)c(C(=O)c2c[nH]c3ncc(-c4ccc(N5CCC(CN6CCC(c7ccc8c(c7)CN([C@H]7CCC(=O)NC7=O)C8=O)CC6)CC5)cc4)cc23)c1F [Compound 204, N-{3-[5-(4-{4-[(4-{2-[(3S)-2,6-dioxopiperidin-3-yl]-1-oxo-2,3-dihydro-1H-isoindol-5-yl}piperidin-1-yl)methyl]piperidin-1-yl}phenyl)-1H-pyrrolo[2,3-b]pyridine-3-carbonyl]-2,4-difluorophenyl}-2-methylpropane-1-sulfonamide]
50 to 500 | 35 to 70 | 1 to 10 | 35 to 70 | O=C1CCC(N2Cc3cc(N4CC(CN5CCN(C6(c7ncc(-c8cnc9[nH]cc(C(=O)c%10c(F)ccc(NS(=O)(=O)N%11CC[C@@H](F)C%11)c%10F)c9c8)cn7)CC6)CC5)C4)ccc3C2=O)C(=O)N1 (stereo partly drawn) [Compound 320, (3R)-N-{3-[5-(2-{1-[4-({1-[2-(2,6-dioxopiperidin-3-yl)-1-oxo-2,3-dihydro-1H-isoindol-5-yl]azetidin-3-yl}methyl)piperazin-1-yl]cyclopropyl}pyrimidin-5-yl)-1H-pyrrolo[2,3-b]pyridine-3-carbonyl]-2,4-difluorophenyl}-3-fluoropyrrolidine-1-sulfonamide]
5 to 50 | 35 to 70 | > 30 |  | O=C1CC[C@@H](N2Cc3cc(CN4C[C@@H]5CN(c6ccc(-c7cnc8[nH]cc(C(=O)c9c(F)ccc(NS(=O)(=O)N%10CC[C@@H](F)C%10)c9F)c8c7)cc6)C[C@@H]5C4)ccc3C2=O)C(=O)N1 [Compound 77, (3R)-N-[3-(5-{4-[(3aR,6aS)-5-({2-[(3R)-2,6-dioxopiperidin-3-yl]-1-oxo-2,3-dihydro-1H-isoindol-5-yl}methyl)-octahydropyrrolo[3,4-c]pyrrol-2-yl]phenyl}-1H-pyrrolo[2,3-b]pyridine-3-carbonyl)-2,4-difluorophenyl]-3-fluoropyrrolidine-1-sulfonamide]
